In US12091426B2, “Bifunctional degraders of hematopoietic progenitor kinase and therapeutic uses thereof” (Nurix Therapeutics, Inc., priority 2021, dated 2024):

Target: T1, HPK1 (Homo sapiens, UniProt Q92918)
T1 construct: A HiBiT tag was introduced by CRISPR on the N terminus of HPK1 in Jurkat cells; host or cells: Jurkat cells (ATCC TIB-152), monoclonal line with CRISPR knock-in of HiBiT at the endogenous HPK1 locus
Test: HPK1 Cellular HiBit Degradation Assay
Type: cell-based
Conditions: HiBiT HPK1 Jurkat cells, 24 hrs; for DC50: concentration at which 50% of HPK1 was remaining, read-out: DC50 Category; for Dmax: Jurkat, maximum degradation vs DMSO vehicle control, read-out: Dmax Category
Description: HPK1 Cellular HiBit Degradation Assay
A HiBiT tag was introduced by CRISPR on the N terminus of HPK1 in Jurkat cells (ATCC® TIB-152) to allow quantitation of HPK1 protein levels in a monoclonal human cell line. Cells were plated at 1×10^6 cells/mL, 30 uL/well (3×10^4 cells/well) in complete RPMI 1640 (10% heat inactivated FBS, 1% L-glutamine) in 384-well assay plates (Corning, cat. no. 3570). HPK1 chimeric targeting molecules (CTMs) were added in an 11 point dilution series (11-point, 3.16-fold) with a final assay concentration range of 10 uM to 0.1 nM. The parental Jurkat cell line, with no HiBiT insertion, was included in the assay as a background control. Cell treated with a DMSO vehicle control was used to determine the maximum signal defining 100% HPK1 in the cell. Cells were incubated for 24 hrs at 37° C./5% CO2. Following incubation, 30 uL of complete Nano-Glo HiBiT Lytic Detection Reagent (Promega cat. no. N3040) was added. Cells were incubated for 10 min at room temperature and luminescence was read on an EnVision plate reader (Perkin Elmer, 0.1 sec per well). Viability was assessed in the same plate using Cell Titer Fluor (Promega) and read on an EnVision plate reader to ensure results were not the effect of cytotoxicity. Percent HPK1 remaining per sample was calculated as follows:
[formula] % HPK1 remaining values were plotted as a function of compound concentration and curves were fit using the Prism (GraphPad) equation “log(inhibitor) vs response−Variable slope (four parameters)”. Dmax values were calculated by identifying the lowest % remaining and subtracting from 100. DC50 values were determined by extrapolating from the curve the concentration at which 50% of HPK1 was remaining based on the DMSO control.
HiBiT HPK1 Jurkat cell lines were used to evaluate the total protein levels of HPK1 in a robust human cellular high throughput format. The level of HPK1 remaining following treatment with HPK1 CTMs is reported as Dmax (maximum degradation) achieved at 24 hours when compared to vehicle treated controls. […] These decreases were not a result of cytotoxicity measured by a viability assessment.

T1 sequence (Q92918 whole entry): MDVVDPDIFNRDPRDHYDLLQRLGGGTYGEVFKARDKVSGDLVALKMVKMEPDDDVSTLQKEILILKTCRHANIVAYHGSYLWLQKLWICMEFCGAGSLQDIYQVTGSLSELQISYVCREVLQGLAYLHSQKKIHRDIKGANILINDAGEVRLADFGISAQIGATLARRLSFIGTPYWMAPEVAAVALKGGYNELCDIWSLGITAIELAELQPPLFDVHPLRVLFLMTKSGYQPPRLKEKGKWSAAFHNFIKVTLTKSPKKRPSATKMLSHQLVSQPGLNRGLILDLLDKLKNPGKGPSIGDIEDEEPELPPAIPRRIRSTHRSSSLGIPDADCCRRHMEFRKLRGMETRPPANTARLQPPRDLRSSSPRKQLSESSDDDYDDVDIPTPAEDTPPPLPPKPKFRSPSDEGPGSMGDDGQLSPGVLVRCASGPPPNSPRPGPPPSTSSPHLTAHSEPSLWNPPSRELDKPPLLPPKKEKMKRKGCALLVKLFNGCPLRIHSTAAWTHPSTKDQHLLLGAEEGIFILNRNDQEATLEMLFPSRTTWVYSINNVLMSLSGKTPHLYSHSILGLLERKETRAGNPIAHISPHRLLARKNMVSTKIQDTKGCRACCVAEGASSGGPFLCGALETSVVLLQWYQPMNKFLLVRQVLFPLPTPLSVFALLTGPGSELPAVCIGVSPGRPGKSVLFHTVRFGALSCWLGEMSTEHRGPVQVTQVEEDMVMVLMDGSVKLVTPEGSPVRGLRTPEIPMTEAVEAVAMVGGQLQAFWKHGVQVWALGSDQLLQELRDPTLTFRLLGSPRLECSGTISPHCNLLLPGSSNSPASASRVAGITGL

DC50 | Dmax | Structure (SMILES)
< 100 nM | 70 to 85% | CC(C)n1cnc2cc(-c3ccc4c(c3)N([C@H]3C[C@@H](N5CCCCC5)C3)C(=O)C43CCN(C(=O)C4CCN(C(=O)C5CCN(c6ccc(N7CCC(=O)NC7=O)cc6)CC5)CC4)CC3)nc(Nc3ccncc3F)c21 [Example 71, 1-[4-(4-{4-[(6-{4-[(3-Fluoropyridin-4-yl)amino]-3-(propan-2-yl)-3H-imidazo[4,5-c]pyridin-6-yl}-2-oxo-1-[(1S,3S)-3-(piperidin-1-yl)cyclobutyl]-1,2-dihydrospiro[indole-3,4′-piperidin]-1′-yl)carbonyl]piperidine-1-carbonyl}piperidin-1-yl)phenyl]-1,3-diazinane-2,4-dione]
< 100 nM | 70 to 85% | CC(C)n1cnc2cc(-c3ccc4c(c3)N([C@H]3C[C@@H](N5CCCCC5)C3)C(=O)C43CCN(C(=O)C4CCN(C(=O)CN5CCN(c6ccc(C7CCC(=O)NC7=O)cn6)CC5)CC4)CC3)nc(Nc3ccccc3F)c21 (mixture of isomers) [Example 95, (3RS)-3-{6-[4-(2-{4-[(6-{4-[(2-fluorophenyl)amino]-3-(propan-2-yl)-3H-imidazo[4,5-c]pyridin-6-yl}-2-oxo-1-[(1S,3S)-3-(piperidin-1-yl)cyclobutyl]-1,2-dihydrospiro[indole-3,4′-piperidin]-1′-yl)carbonyl]piperidin-1-yl}-2-oxoethyl)piperazin-1-yl]pyridin-3-yl}piperidine-2,6-dione]
100 to 500 nM | 50 to 70% | CC(C)n1cnc2cc(-c3ccc4c(c3)N([C@H]3C[C@@H](N5CCCCC5)C3)C(=O)C43CCN(C(=O)C4C5CN(C(=O)C6CCN(c7ccc(C8CCC(=O)NC8=O)cn7)CC6)CC54)CC3)nc(NC3CC3)c21 (mixture of isomers) [Example 38, (3RS)-3-(6-{4-[6-({6-[4-(cyclopropylamino)-3-(propan-2-yl)-3H-imidazo[4,5-c]pyridin-6-yl]-2-oxo-1-[(1S,3S)-3-(piperidin-1-yl)cyclobutyl]-1,2-dihydrospiro[indole-3,4′-piperidin]-1′-yl}carbonyl)-3-azabicyclo[3.1.0]hexane-3-carbonyl]piperidin-1-yl}pyridin-3-yl)piperidine-2,6-dione]
100 to 500 nM | 70 to 85% | CC(C)n1cnc2cc(-c3ccc4c(c3)N([C@H]3C[C@@H](N5CCCCC5)C3)C(=O)C43CCN(C(=O)C4(C)CCN(C(=O)C5CCN(c6ccc(C7CCC(=O)NC7=O)cn6)CC5)CC4)CC3)nc(N(C)C3CC3)c21 (stereo partly drawn) [Example 171, 3-[6-(4-{4-[(6-{4-[cyclopropyl(methyl)amino]-3-(propan-2-yl)-3H-imidazo[4,5-c]pyridin-6-yl}-2-oxo-1-[(1S,3S)-3-(piperidin-1-yl)cyclobutyl]-1,2-dihydrospiro[indole-3,4′-piperidin]-1′-yl)carbonyl]-4-methylpiperidine-1-carbonyl}piperidin-1-yl)pyridin-3-yl]piperidine-2,6-dione]
< 100 nM | 70 to 85% | CC(C)n1cnc2cc(-c3ccc4c(c3)N([C@H]3C[C@@H](N5CCCCC5)C3)C(=O)C43CCN(C(=O)[C@@H]4CCN(C(=O)[C@H]5CC[C@H](Oc6ccc(N7CCC(=O)NC7=O)cn6)CC5)C4)CC3)nc(NC3CC3)c21 [Example 20, 1-(6-{[(1R,4R)-4-[(3R)-3-({6-[4-(cyclopropylamino)-3-(propan-2-yl)-3H-imidazo[4,5-c]pyridin-6-yl]-2-oxo-1-[(1S,3S)-3-(piperidin-1-yl)cyclobutyl]-1,2-dihydrospiro[indole-3,4′-piperidin]-1′-yl}carbonyl)pyrrolidine-1-carbonyl]cyclohexyl]oxy}pyridin-3-yl)-1,3-diazinane-2,4-dione]
100 to 500 nM | 50 to 70% | CC(C)n1cnc2cc(-c3ccc4c(c3)N([C@H]3C[C@@H](N5CCC[C@H](F)C5)C3)C(=O)C43CCN(C(=O)C4(C)CCN(C(=O)CC5CCN(c6ccc(C7CCC(=O)NC7=O)cn6)CC5)CC4)CC3)nc(NC3CC3)c21 (mixture of isomers) [Example 206, (3RS)-3-[6-(4-{2-[4-({6-[4-(cyclopropylamino)-3-(propan-2-yl)-3H-imidazo[4,5-c]pyridin-6-yl]-2-oxo-1-[(1S,3S)-3-[(3S)-3-fluoropiperidin-1-yl]cyclobutyl]-1,2-dihydrospiro[indole-3,4′-piperidin]-1′-yl}carbonyl)-4-methylpiperidin-1-yl]-2-oxoethyl}piperidin-1-yl)pyridin-3-yl]piperidine-2,6-dione]
100 to 500 nM | > 85% | CC(C)n1cnc2cc(-c3ccc4c(c3)N([C@H]3C[C@@H](N5CCCCC5)C3)C(=O)C43CCN(C(=O)[C@]4(C)CCN(C(=O)C5CCN(c6ccc(C7CCC(=O)NC7=O)cc6F)CC5)C4)CC3)nc(NC3CC3)c21 (mixture of isomers) [Example 147, (3RS)-3-(4-{4-[(3R)-3-({6-[4-(cyclopropylamino)-3-(propan-2-yl)-3H-imidazo[4,5-c]pyridin-6-yl]-2-oxo-1-[(1S,3S)-3-(piperidin-1-yl)cyclobutyl]-1,2-dihydrospiro[indole-3,4′-piperidin]-1′-yl}carbonyl)-3-methylpyrrolidine-1-carbonyl]piperidin-1-yl}-3-fluorophenyl)piperidine-2,6-dione]
< 100 nM | 50 to 70% | CC(C)n1cnc2cc(-c3ccc4c(c3)N([C@H]3C[C@@H](N5CCCCC5)C3)C(=O)C43CCN(C(=O)C4CN(C(=O)C5CCN(c6ccc(C7CCC(=O)NC7=O)cn6)CC5)CC5(CCC5)C4)CC3)nc(NC3CC3)c21 (mixture of isomers) [Example 267, (3RS)-3-(6-{4-[8-({6-[4-(cyclopropylamino)-3-(propan-2-yl)-3H-imidazo[4,5-c]pyridin-6-yl]-2-oxo-1-[(1S,3S)-3-(piperidin-1-yl)cyclobutyl]-1,2-dihydrospiro[indole-3,4′-piperidin]-1′-yl}carbonyl)-6-azaspiro[3.5]nonane-6-carbonyl]piperidin-1-yl}pyridin-3-yl)piperidine-2,6-dione]
100 to 500 nM | 70 to 85% | CC(C)n1cnc2cc(-c3ccc4c(c3)N([C@H]3C[C@@H](N5CCCCC5)C3)C(=O)C43CCN(C(=O)C4(C)CCN(C(=O)C5CCN(c6ccc7c(c6)C(=O)N(C6CCC(=O)NC6=O)C7=O)CC5)CC4)CC3)nc(Nc3ccccc3F)c21 (stereo partly drawn) [Example 122, 2-(2,6-dioxopiperidin-3-yl)-5-(4-{4-[(6-{4-[(2-fluorophenyl)amino]-3-(propan-2-yl)-3H-imidazo[4,5-c]pyridin-6-yl}-2-oxo-1-[(1S,3S)-3-(piperidin-1-yl)cyclobutyl]-1,2-dihydrospiro[indole-3,4′-piperidin]-1′-yl)carbonyl]-4-methylpiperidine-1-carbonyl}piperidin-1-yl)-2,3-dihydro-1H-isoindole-1,3-dione]
< 100 nM | 70 to 85% | CC(C)n1cnc2cc(-c3ccc4c(c3)N([C@H]3C[C@@H](N5CCCCC5)C3)C(=O)C43CCN(C(=O)C4CN(C(=O)C5CCN(c6ccc(C7CCC(=O)NC7=O)cn6)CC5)CCC45CCC5)CC3)nc(NC3CC3)c21 (mixture of isomers) [Example 287, (3RS)-3-(6-{4-[5-({6-[4-(cyclopropylamino)-3-(propan-2-yl)-3H-imidazo[4,5-c]pyridin-6-yl]-2-oxo-1-[(1S,3S)-3-(piperidin-1-yl)cyclobutyl]-1,2-dihydrospiro[indole-3,4′-piperidin]-1′-yl}carbonyl)-7-azaspiro[3.5]nonane-7-carbonyl]piperidin-1-yl}pyridin-3-yl)piperidine-2,6-dione]

Structure (SMILES) | DC50 | Dmax
CC(C)n1cnc2cc(-c3ccc4c(c3)N([C@H]3C[C@@H](N5CCCCC5)C3)C(=O)C43CCN(C(=O)C4[C@@H]5C[C@H]4CN(C(=O)[C@H]4CC[C@H](Oc6ccc(C7CCC(=O)NC7=O)cc6)CC4)C5)CC3)nc(NC3CC3)c21 (stereo partly drawn) [Example 238, 3-(4-(((1R,4R)-4-((1R,5S,6S)-6-(6-(4-(cyclopropylamino)-3-isopropyl-3H-imidazo[4,5-c]pyridin-6-yl)-2-oxo-1-((1S,3S)-3-(piperidin-1-yl)cyclobutyl)spiro[indoline-3,4′-piperidine]-1′-carbonyl)-3-azabicyclo[3.1.1]heptane-3-carbonyl)cyclohexyl)oxy)phenyl)piperidine-2,6-dione] | < 100 nM | > 85%
